Measured values published in patent US4888174A, “Insecticidal polymeric compositions” (priority 1988, dated 1989).

Experiment: Absorption rate of chlorpyrifos onto LDPE and ethylene/acrylic acid (EAA) pellets
Type: physicochemical
Details: 85° C.; for Actual Weight % Chlorpyrifos Found in Copolymer EAA: EAA (Primacor 1430) pellets; for % of Chlorpyrifos Absorbed onto Copolymer EAA: EAA pellets, relative to 0.88% maximum; for Actual Weight % Chlorpyrifos Found in LDPE / % of Chlorpyrifos Absorbed onto LDPE: LDPE pellets; for % of Chlorpyrifos Absorbed onto LDPE: relative to 0.90% maximum
Protocol: A constant temperature oven is set at 85° C. by using a thermowatch controller and an infrared heat lamp. A wide mouth quart jar containing 247.5 g of 749 low density polyethylene (LDPE) or an equivalent amount of Primacor® 1430 pellets is placed into the oven and left overnight. Primacor® is a copolymer of ethylene/acrylic acid (EAA) containing 9 percent (%) by weight acrylic acid. Two and one-half grams of liquid Dursban® insecticide heated to 50° C. are added to each jar to give a calculated concentration of 1 percent chlorpyrifos in the polymer. The Dursban® insecticide contains 99 percent chlorpyrifos and 1 percent inert ingredients. The jar is shaken initially, returned to the oven, and then removed every 5 minutes and reshaken. A first sample of 10 pellets is taken from the jar after 15 minutes. The pellets are placed on an ice water bath for 1 minute, removed with tweezers and placed into a 50 ml beaker. The pellets are rinsed with 5 mls of acetone to remove excess water. The pellets are rinsed with 5 mls of methylene chloride to remove chlorpyrifos coated on the pellet surface. The solvent is decanted after each rinse and the pellets are dried by blowing nitrogen over them for three minutes. The pellets are weighed on an analytical balance, placed into a 2 ounce bottle and the chlorpyrifos absorbed by the pellets is extracted by shaking the pellets with 20 mls of chloroform on an automatic shaker overnight. The chloroform extract, after appropriate dilution, is measured at 292 nanometers wave length on an ultraviolet (UV) spectrophotometer. The absorbence of the sample extract is compared to a standard curve of absorbence from a known concentration of chlorpyrifos in chloroform. The absorption rate for the Primacor® 1430 pellets is determined in the same manner as the LDPE.

[1] = assumed, based on a time of 180 minutes

CCOP(=S)(OCC)Oc1nc(Cl)c(Cl)cc1Cl [Chlorpyrifos, O,O-diethyl-3,5,6-trichloro-2-pyridyl phosphorothioate]
Actual Weight % Chlorpyrifos Found in Copolymer EAA (0 minutes): 0.0 Weight % | Actual Weight % Chlorpyrifos Found in Copolymer EAA (15 minutes): 0.71 Weight % | Actual Weight % Chlorpyrifos Found in Copolymer EAA (30 minutes): 0.80 Weight % | Actual Weight % Chlorpyrifos Found in Copolymer EAA (45 minutes): 0.85 Weight % | Actual Weight % Chlorpyrifos Found in Copolymer EAA (60 minutes): 0.84 Weight % | Actual Weight % Chlorpyrifos Found in Copolymer EAA (90 minutes): 0.83 Weight % | Actual Weight % Chlorpyrifos Found in Copolymer EAA (120 minutes): 0.95 Weight % | Actual Weight % Chlorpyrifos Found in Copolymer EAA (150 minutes): 0.86 Weight % | Actual Weight % Chlorpyrifos Found in Copolymer EAA (180 minutes): 0.88 Weight % | % of Chlorpyrifos Absorbed onto Copolymer EAA (0 minutes): 0.0% | % of Chlorpyrifos Absorbed onto Copolymer EAA (15 minutes): 80.7% | % of Chlorpyrifos Absorbed onto Copolymer EAA (30 minutes): 90.9% | % of Chlorpyrifos Absorbed onto Copolymer EAA (45 minutes): 96.6% | % of Chlorpyrifos Absorbed onto Copolymer EAA (60 minutes): 95.5% | % of Chlorpyrifos Absorbed onto Copolymer EAA (90 minutes): 94.3% | % of Chlorpyrifos Absorbed onto Copolymer EAA (120 minutes): 108.0% | % of Chlorpyrifos Absorbed onto Copolymer EAA (150 minutes): 97.7% | % of Chlorpyrifos Absorbed onto Copolymer EAA (180 minutes): 100.0% | Actual Weight % Chlorpyrifos Found in LDPE (0 minutes): 0.0 Weight % | % of Chlorpyrifos Absorbed onto LDPE (0 minutes): 0.0% | Actual Weight % Chlorpyrifos Found in LDPE (15 minutes): 0.64 Weight % | % of Chlorpyrifos Absorbed onto LDPE (15 minutes): 71.1% | Actual Weight % Chlorpyrifos Found in LDPE (30 minutes): 0.76 Weight % | % of Chlorpyrifos Absorbed onto LDPE (30 minutes): 84.4% | Actual Weight % Chlorpyrifos Found in LDPE (45 minutes): 0.86 Weight % | % of Chlorpyrifos Absorbed onto LDPE (45 minutes): 95.6% | Actual Weight % Chlorpyrifos Found in LDPE (60 minutes): 0.91 Weight % | % of Chlorpyrifos Absorbed onto LDPE (60 minutes): 101.1% | Actual Weight % Chlorpyrifos Found in LDPE (90 minutes): 0.89 Weight % | % of Chlorpyrifos Absorbed onto LDPE (90 minutes): 98.9% | Actual Weight % Chlorpyrifos Found in LDPE (120 minutes): 0.92 Weight % | % of Chlorpyrifos Absorbed onto LDPE (120 minutes): 102.2% | Actual Weight % Chlorpyrifos Found in LDPE (150 minutes): 1.07 Weight % | % of Chlorpyrifos Absorbed onto LDPE (150 minutes): 118.9% | Actual Weight % Chlorpyrifos Found in LDPE (180 minutes): 0.90 Weight % | % of Chlorpyrifos Absorbed onto LDPE (180 minutes): 100.0% | maximum absorption by the Copolymer EAA [1]: 0.88 % by weight | maximum absorption of chlorpyrifos by the LDPE [1]: 0.90 % by weight
